Data published in patent US12667604B2, “Combination therapy with controlled-release CNP agonists” (ASCENDIS PHARMA GROWTH DISORDERS A/S, priority 2016, dated 2026).

Columns and labels:
[1] = test system: Fgfr3Y367C/+ mice; assay: Achondroplasia phenotype in Fgfr3Y367C/+ mice (whole body autoradiography, bone lengths); type: in vivo; conditions: dosing from day 1 of birth for 15 days; single agent or combination
Protocol: Animals are sacrificed on day 16 and tissues fixed for histologic or immunohistochemical analysis. Either compound is administered alone or in combination. The dose levels employed for Rosuvastatin are 0.25, 0.5, 1.0 and 2.0 mg/kg. […] The ratios ranges from 1:1-24:1
Reversion of phenotypical features are assessed using whole body autoradiography. The animals are placed on their right side, with the left hind leg more forward than the right, to allow both hind legs to be visible on the X-ray. Bones obtained at necropsy include femur, tibia, humerus, ulna, lumbar vertebra segment L 4-6 and are measured with a caliper.

[2] = test system: hypophysectomized (HYPOX) SPF Sprague Dawley rats; assay: Histologic evaluation of HE stained right tibia, width of the endochondral/ossification zone; type: in vivo, rat
Protocol: (§1) Method: This study was performed in order to test and compare the effect of Lys26 CNP-38 PEG4×10 kDa conjugate, Somatropin and combinations of the two compounds in an animal model relevant for investigating treatment of growth deficiency. The Somatropin (human growth hormone, hGH) was a United States Pharmacopeia (USP) Reference Standard and was prepared according to supplier instructions. Lys26 CNP-38 PEG4×10 kDa conjugate and Somatropin were administered alone or in combination via subcutaneous injection to hypophysectomized (HYPOX) SPF Sprague Dawley rats for a total of 29 days. The animals were dosed daily with Somatropin or vehicle, and weekly with Lys26 CNP-38 PEG4×10 kDa conjugate (at two different sites in animals receiving both test items on days 1, 8, 15, 22, and 29). The dose levels employed for Lys26 CNP-38 PEG4×10 kDa conjugate were 0.3, 1.0, and 2.0 mg/kg. Somatropin was employed at […] with a concentration of 10 μg/mL (˜8-10 μg/kg with animal weights between 100-120 g during the study period). The animals were weighed predose and once daily during the dosing period. […] Animals were sacrificed on day 30, and femur and tibia were trimmed and their length measured using a caliper. Hereafter, right tibia was fixed and processed for histologic and histomorphometric analysis.

[3] = test system: hypophysectomized (HYPOX) SPF Sprague Dawley rats; assay: Histomorphometric measurement of proliferative zone width of right tibia growth plate; type: in vivo, rat; conditions: Somatropin alone versus control (vehicle)
Protocol: as §1

[4] = test system: hypophysectomized (HYPOX) SPF Sprague Dawley rats; assay: Femur and tibia length measured with a caliper in hypophysectomized rats; type: in vivo, rat; conditions: Somatropin alone, daily s.c.; relative to the vehicle group; day 30
Protocol: as §1

[5] = test system: hypophysectomized (HYPOX) SPF Sprague Dawley rats; assay: Body weight gain in hypophysectomized rats; type: in vivo, rat
Protocol: as §1

**Q.** How did the “reversal of the achondroplasic phenotype” value [1] turn out when `CC(C)c1nc(N(C)S(C)(=O)=O)nc(-c2ccc(F)cc2)c1/C=C/[C@@H](O)C[C@@H](O)CC(=O)O` [Rosuvastatin] was run?
**A.** beneficial effect on reversal of the achondroplasic phenotype is observed

**Q.** How did the “Number of animals, width of endochondral/ossification zone Normal (grade 0)” value ([2]; Somatropin alone) turn out when “Somatropin: human growth hormone, hGH; United States Pharmacopeia (USP) Reference Standard” was run?
**A.** 9

**Q.** And the “width of the endochondral/ossification zone, histologic evaluation” value ([2]; compared to vehicle or to conjugate alone)?
**A.** did not differ from background (vehicle)

**Q.** What about the “width of the proliferative zone” value [3] of the same compound?
**A.** not different from control (vehicle) animals

**Q.** What about the “increase in femur length” value [4] of the same compound?
**A.** −0.04±0.08 mm

**Q.** What about the “increase in tibia length” value [4] of the same compound?
**A.** 0.55±0.17 mm

**Q.** And the “Average BWG (g) (±SE)” value ([5]; body weight gain day 0 (predose) to day 28, Somatropin alone, daily s.c. 10 μL/animal of 10 μg/mL (~8-10 μg/kg))?
**A.** 4.44 (±0.94) g

**Q.** And the “body weight gain” value ([5]; compared to vehicle treated group)?
**A.** Significant body weight gains
